Results published in patent US12480166B2, “Multiplexed fuel analysis” (ANDE Corporation, priority 2018, dated 2025).

Legend:
general bacteria 16S,T1 = assay: General 6-plex Fuel Assay (multiplexed PCR after centrifugation/DNaseI processing) of commercial fleet diesel samples before and after biocide treatment; format: cell-based; details: real-world diesel samples from commercial fleets, after vs before biocide treatment; FIG. 41
Source text: (§1) The approach relies in part on centrifugation to allow phase separation and to separate the intact microbial cells and cellular debris from the exposed, extracellular genomic DNA material. The extracellular material is then selectively degraded with addition of an enzyme, DNaseI. Note than DNA degradation enzymes in addition to DNAseI can be used in this approach-many such enzymes are available including restriction enzymes (particularly frequent cutters), other endonucleases, and exonucleases. DNA may also be degraded using physical methods.
(§2) Mock fuel samples were prepared by adding 200 μl of buffer (e.g. 1×PBS, or a preferred solution to prevent cells from lysing while providing an optimal chemical environment for downstream processing) to 800 μl of diesel fuel (previously determined to be negative for microbial contamination) and spiked with 500 ng of purified Bacillus DNA and live Pseudomonas cells (approximately […]). This allowed clear distinction between DNA present extracellularly and intracellularly. The resulting sample was mixed by multiple inversions and then subjected to centrifugation at 20,000×g for 2 minutes to pelletize the live Pseudomonas cells. […]
(§3) Biocide performance was also measured using an ATP assay for measurement of total microbial load. […]

[1] = system: filamentous fungi 18S, T3; assay: as above; format: cell-based; details: real-world diesel samples from commercial fleets, after vs before biocide treatment; FIG. 41
Source text: as §1, §2, §3

N#CSCSC#N [biocide, methylenebisthiocyanate]
decline in general bacteria 16S,T1 signal after biocide treatment (general bacteria 16S,T1): approximately 75% | filamentous fungi 18S, T3 signal after biocide treatment [1]: loss
